Several values for one entry are separate records, joined by “and”; a condition that tells them apart may be missing. Identical values can stand only once. Inconclusive results and toxic doses are left out.
Tested on: CD2F1 mice, L1210 leukemia ip, survival T/C
Assay: NCI In Vivo Anticancer Drug Screen. Data for tumor model L1210 Leukemia (intraperitoneal) in CD2F1 (CDF1) mice
Conditions: higher = longer survival
How it was run: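 Tumor-bearing mice (transplanted tumor) were split into treated and vehicle control groups, and the measured endpoint of each treated group was divided by that of its vehicle controls.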

For `S=P12N3CCN1CCN2CC3`, the T/C (endpoint: mean survival time, dose: 7.7 mg/kg/injection, schedule: Q01DX001 (ip), vehicle: water) was 101 % of control, the T/C (endpoint: mean survival time, dose: 10.9 mg/kg/injection, schedule: Q01DX001 (ip), vehicle: water) was 95 % of control and the T/C (endpoint: mean survival time, dose: 15.7 mg/kg/injection, schedule: Q01DX001 (ip), vehicle: water) was 100 % of control. The T/C (endpoint: mean survival time, dose: 22.4 mg/kg/injection, schedule: Q01DX001 (ip), vehicle: water) was 97 % of control, the T/C (endpoint: mean survival time, dose: 32.0 mg/kg/injection, schedule: Q01DX001 (ip), vehicle: water) was 100 % of control and the T/C (endpoint: mean survival time, dose: 64.0 mg/kg/injection, schedule: Q01DX001 (ip), vehicle: saline) was 95 % of control. For the same compound, the T/C (endpoint: mean survival time, dose: 128.0 mg/kg/injection, schedule: Q01DX001 (ip), vehicle: saline) was 98 % of control.

In the case of `O=C(O)C(O)C(O)C(O)C(O)CO.[NH-]C1CCCCC1[NH-].[Pt+2]` (configuration not stated), the T/C (endpoint: mean survival time, dose: 6.25 mg/kg/injection, schedule: Q04DX003 (ip), vehicle: saline) is reported as 150 % of control and 290 % of control, the T/C (endpoint: mean survival time, dose: 12.5 mg/kg/injection, schedule: Q04DX003 (ip), vehicle: saline) is reported as 230 % of control and 277 % of control and the T/C (endpoint: mean survival time, dose: 25.0 mg/kg/injection, schedule: Q04DX003 (ip), vehicle: saline) is reported as 244 % of control and 314 % of control.

In the case of `CC[N+](CC)(CC)CC`, the T/C (endpoint: mean survival time, dose: 0.37 mg/kg/injection, schedule: Q01DX009 (ip), vehicle: saline with Tween-80) is reported as 110 % of control, the T/C (endpoint: mean survival time, dose: 0.75 mg/kg/injection, schedule: Q01DX009 (ip), vehicle: saline with Tween-80) is reported as 96 % of control and the T/C (endpoint: mean survival time, dose: 1.5 mg/kg/injection, schedule: Q01DX009 (ip), vehicle: saline with Tween-80) is reported as 96 % of control. For the same compound, the T/C (endpoint: mean survival time, dose: 3.0 mg/kg/injection, schedule: Q01DX009 (ip), vehicle: saline with Tween-80) was 100 % of control, the T/C (endpoint: mean survival time, dose: 6.0 mg/kg/injection, schedule: Q01DX009 (ip), vehicle: saline with Tween-80) was 110 % of control and the T/C (endpoint: mean survival time, dose: 6.25 mg/kg/injection, schedule: Q04DX003 (ip), vehicle: saline with Tween-80) was 100 % of control. For the same compound, the T/C (endpoint: mean survival time, dose: 12.0 mg/kg/injection, schedule: Q01DX009 (ip), vehicle: saline with Tween-80) was 96 % of control, the T/C (endpoint: mean survival time, dose: 12.5 mg/kg/injection, schedule: Q01DX009 (ip), vehicle: saline with Tween-80) was 88 % of control and the T/C (endpoint: mean survival time, dose: 12.5 mg/kg/injection, schedule: Q04DX003 (ip), vehicle: saline with Tween-80) was 100 % of control.

In the case of `Nc1ncc2ccccc2c1-c1ccc(NC(=O)CCCl)cc1`, the T/C (endpoint: mean survival time, dose: 25.0 mg/kg/injection, schedule: Q04DX003 (ip), vehicle: DMSO) is reported as 98 % of control, the T/C (endpoint: mean survival time, dose: 50.0 mg/kg/injection, schedule: Q04DX003 (ip), vehicle: DMSO) is reported as 102 % of control and the T/C (endpoint: mean survival time, dose: 100.0 mg/kg/injection, schedule: Q04DX003 (ip), vehicle: DMSO) is reported as 95 % of control. For the same compound, the T/C (endpoint: mean survival time, dose: 200.0 mg/kg/injection, schedule: Q04DX003 (ip), vehicle: DMSO) was 102 % of control and the T/C (endpoint: mean survival time, dose: 400.0 mg/kg/injection, schedule: Q04DX003 (ip), vehicle: DMSO) was 90 % of control.

With `COc1ccc(OC)c(N=C2C(=O)Nc3ccc(Br)cc32)c1` the T/C (endpoint: mean survival time, dose: 100.0 mg/kg/injection, schedule: Q04DX002 (ip), vehicle: saline with Tween-80) was 91 % of control and the T/C (endpoint: mean survival time, dose: 200.0 mg/kg/injection, schedule: Q04DX002 (ip), vehicle: saline with Tween-80) was 91 % of control.

`CC(C)([NH-])C[NH-].[Cl][Pt+2][Cl]` was tested, and the T/C (endpoint: median survival time, dose: 10.0 mg/kg/injection, schedule: Q04DX003 (ip), vehicle: saline with Tween-80) was 98 % of control, the T/C (endpoint: median survival time, dose: 20.0 mg/kg/injection, schedule: Q04DX003 (ip), vehicle: saline with Tween-80) was 95 % of control and the T/C (endpoint: median survival time, dose: 40.0 mg/kg/injection, schedule: Q04DX003 (ip), vehicle: saline with Tween-80) was 102 % of control. For the same compound, the T/C (endpoint: median survival time, dose: 80.0 mg/kg/injection, schedule: Q04DX003 (ip), vehicle: saline with Tween-80) was 103 % of control and 112 % of control and the T/C (endpoint: median survival time, dose: 160.0 mg/kg/injection, schedule: Q04DX003 (ip), vehicle: saline with Tween-80) was 117 % of control.

`COc1ccc(/C=C/c2cc[n+](C)cc2)cc1` was tested, and the T/C (endpoint: mean survival time, dose: 12.5 mg/kg/injection, schedule: Q01DX009 (ip), vehicle: saline) was 102 % of control and the T/C (endpoint: mean survival time, dose: 25.0 mg/kg/injection, schedule: Q01DX009 (ip), vehicle: saline) was 95 % of control.

`Nc1ccc2[nH]c(-c3ccc(S(=O)(=O)F)cc3)cc(=O)c2c1` was tested, and the T/C (endpoint: mean survival time, dose: 100.0 mg/kg/injection, schedule: Q01DX009 (ip), vehicle: saline with Tween-80) was 102 % of control, the T/C (endpoint: mean survival time, dose: 200.0 mg/kg/injection, schedule: Q01DX009 (ip), vehicle: saline with Tween-80) was 106 % of control and the T/C (endpoint: mean survival time, dose: 400.0 mg/kg/injection, schedule: Q01DX009 (ip), vehicle: saline with Tween-80) was 113 % of control.

`OC1c2ccccc2C2CC12` (configuration not stated) was tested, and the T/C (endpoint: mean survival time, dose: 100.0 mg/kg/injection, schedule: Q01DX001 (ip), vehicle: saline with Tween-80) was 105 % of control, the T/C (endpoint: mean survival time, dose: 200.0 mg/kg/injection, schedule: Q01DX001 (ip), vehicle: saline with Tween-80) was 102 % of control and the T/C (endpoint: mean survival time, dose: 400.0 mg/kg/injection, schedule: Q01DX001 (ip), vehicle: saline with Tween-80) was 105 % of control.

In the case of `N#CC1C(=O)NC(O)(c2ccccc2)C1c1ccccc1` (configuration not stated), the T/C (endpoint: mean survival time, dose: 25.0 mg/kg/injection, schedule: Q04DX003 (ip), vehicle: saline with Tween-80) is reported as 105 % of control, the T/C (endpoint: mean survival time, dose: 50.0 mg/kg/injection, schedule: Q04DX003 (ip), vehicle: saline with Tween-80) is reported as 105 % of control and the T/C (endpoint: mean survival time, dose: 100.0 mg/kg/injection, schedule: Q04DX003 (ip), vehicle: saline with Tween-80) is reported as 97 % of control and 105 % of control.
